From ChEMBL document CHEMBL5230081, “Battle against Vancomycin-Resistant Bacteria: Recent Developments in Chemical Strategies” (J Med Chem, 2019)
In brackets after ≈: the same amount, converted by molar mass.

Columns and labels:
Enterococcus faecalis [1] = assay: Antimicrobial activity against Vancomycin - resistant Enterococcus faecalis SR7914 assessed as inhibition of bacterial growth; assay type: functional
Enterococcus faecium [2] = assay: Antibacterial activity against Enterococcus faecium SR7917 (VRE); assay type: functional
Enterococcus faecium [3] = assay: Antimicrobial activity against Vancomycin-resistant Enterococcus faecium assessed as reduction in microbial growth; assay type: functional; settings: Enterococcus faecium; read-out: MIC
Enterococcus faecalis [4] = assay: Antimicrobial activity against Vancomycin-sensitive Enterococcus faecalis ATCC 29212 assessed as reduction in microbial growth; assay type: functional
Enterococcus faecium [5] = assay: Antimicrobial activity against Vancomycin-resistant (Van A) Enterococcus faecium ATCC 51559 assessed as reduction in microbial growth; assay type: functional; settings: Enterococcus faecium, ATCC 51559; read-out: MIC
Staphylococcus aureus [6] = assay: Antibacterial activity against Vancomycin-intermediate Staphylococcus aureus NRS1 assessed as bacterial growth inhibition; assay type: functional
[7] = Binding affinity to D-Ala-D-Lac
Staphylococcus aureus [8] = assay: Antimicrobial activity against Vancomycin-resistant Staphylococcus aureus incubated for 20 hrs by broth dilution method; assay type: functional
Staphylococcus aureus [9] = assay: Antimicrobial activity against vancomycin-resistant Staphylococcus aureus assessed as microbial growth reduction; assay type: functional
Pseudomonas aeruginosa [10] = assay: Antibacterial activity against colistin-resistant Pseudomonas aeruginosa PA101243 assessed as reduction in bacterial growth after 18 hrs by microbroth dilution method; assay type: functional
Staphylococcus aureus [11] = assay: Antibacterial activity against Vancomycin-resistant Staphylococcus aureus assessed as bacterial growth inhibition measured after 48 hrs by microbroth dilution method; assay type: functional
Staphylococcus aureus [12] = assay: Antibacterial activity against Vancomycin-intermediate Staphylococcus aureus assessed as bacterial growth inhibition measured after 24 hrs by microbroth dilution method; assay type: functional
Acinetobacter baumannii [13] = assay: Antibacterial activity against Acinetobacter baumannii R4942 assessed as reduction in bacterial growth by broth microdilution method; assay type: functional
Enterobacter cloacae = assay: Antibacterial activity against Enterobacter cloacae NDM-1 assessed as reduction in bacterial growth by broth microdilution method; assay type: functional
Pseudomonas aeruginosa [14] = assay: Antibacterial activity against Pseudomonas aeruginosa R590 assessed as reduction in bacterial growth by broth microdilution method; assay type: functional
Pseudomonas aeruginosa [15] = assay: Antibacterial activity against Pseudomonas aeruginosa R590 assessed as reduction in bacterial growth in presence of vancomycin by broth microdilution method; assay type: functional
Acinetobacter baumannii [16] = assay: Antibacterial activity against Acinetobacter baumannii R4942 assessed as reduction in bacterial growth in presence of teicoplanin by broth microdilution method; assay type: functional
Acinetobacter baumannii [17] = assay: Antibacterial activity against Acinetobacter baumannii R4942 assessed as reduction in bacterial growth in presence of telavancin by broth microdilution method; assay type: functional
Escherichia coli [18] = assay: Antibacterial activity against Escherichia coli ATCC 25922 assessed as bacterial growth inhibition measured after 48 hrs in presence of vancomycin; assay type: functional
Escherichia coli [19] = assay: Antibacterial activity against Escherichia coli assessed as bacterial growth inhibition measured after 48 hrs in presence of vancomycin; assay type: functional
Klebsiella pneumoniae = assay: Antibacterial activity against Klebsiella pneumoniae R3949 assessed as reduction in bacterial growth in presence of Meropenem by broth microdilution method; assay type: functional
Escherichia coli [20] = assay: Antimicrobial activity against Escherichia coli ATCC 8739 assessed as microbial growth inhibition in presence of Vancomycin by agar dilution method; assay type: functional
Acinetobacter baumannii [21] = assay: Antimicrobial activity against Acinetobacter baumannii ATCC 17978 assessed as microbial growth inhibition; assay type: functional
Acinetobacter baumannii [22] = assay: Antimicrobial activity against Acinetobacter baumannii assessed as microbial growth inhibition; assay type: functional
Enterococcus faecium [23] = assay: Antimicrobial activity against Vancomycin-resistant Enterococcus faecium ATCC 51559 assessed as inhibition in microbial growth measured after 48 hrs by microbroth dilution method; assay type: functional
Pseudomonas aeruginosa [24] = assay: Antibacterial activity against multi drug resistant Pseudomonas aeruginosa assessed as reduction in microbial growth after 16 to 18 hrs by microbroth dilution method; assay type: functional; settings: time 16-18 hrs
Enterococcus faecium [25] = assay: Antibacterial activity against Vancomycin-resistant Enterococcus faecium assessed as reduction in bacterial growth measured after 48 hrs by microbroth dilution method; assay type: functional

In the case of CCCCCCCCCCCCCCCCC[C@H]1CN(C)[C@@H]([C@H](O[C@@H]2O[C@H](CN)[C@@H](O)[C@H]2O)[C@H]2O[C@@H](n3ccc(=O)[nH]c3=O)[C@H](O)[C@@H]2O)C(=O)N(C)[C@@H]1C(=O)O, the MIC (Enterococcus faecalis [1]) is reported as 8 µg/mL (≈ 10 µM) and the MIC (Enterococcus faecium [2]) is reported as 8 µg/mL (≈ 10 µM).
Compound CCCCCCCC[n+]1ccc(CN[C@@]2(C)C[C@H](O[C@H]3[C@H](Oc4c5cc6cc4Oc4ccc(cc4Cl)[C@@H](O)[C@@H](NC(=O)[C@@H](CC(C)C)NC)C(=O)N[C@@H](CC(N)=O)C(=O)N[C@H]6C(=O)N[C@H]4C(=O)N[C@H](C(=O)N[C@H](C(=O)NC(=O)[C@H](O)[C@@H](O)[C@H](O[C@@H]6O[C@H](CO)[C@@H](O)[C@H](O)[C@H]6O)[C@H](O)CO)c6cc(O)cc(O)c6-c6cc4ccc6O)[C@H](O)c4ccc(c(Cl)c4)O5)O[C@H](CO)[C@@H](O)[C@@H]3O)O[C@@H](C)[C@H]2O)cc1 has an MIC (Enterococcus faecium [3]) of 0.09 µM, an MIC (Enterococcus faecalis [4]) of 0.1 µM and an MIC (Enterococcus faecium [5]) of 0.09 µM. For the same compound, the MIC (Staphylococcus aureus [6]) was 0.1 µM and the Ka [7] was 5.7 10^4/M.
Work on CCCCCCCCCCC(=O)N[C@@H](CCCCN)C(=O)N[C@@H](CCCCN)C(=O)NC(CCCCNC(=O)[C@H]1NC(=O)[C@H]2NC(=O)[C@H](NC(=O)[C@@H]3NC(=O)[C@H](CC(N)=O)NC(=O)[C@H](NC(=O)[C@@H](CC(C)C)NC)[C@H](O)c4ccc(c(Cl)c4)Oc4cc3cc(c4O[C@@H]3O[C@H](CO)[C@@H](O)[C@H](O)[C@H]3O[C@H]3C[C@](C)(N)[C@H](O)[C@H](C)O3)Oc3ccc(cc3Cl)[C@H]2O)c2ccc(O)c(c2)-c2c(O)cc(O)cc21)C(=O)O (some centres undefined) yielded an MIC (Staphylococcus aureus [8]) of 1 µg/mL (≈ 0.499 µM), an MIC (Enterococcus faecium [5]) of 6 µg/mL and an MIC (Staphylococcus aureus [9]) of 0.05 µg/mL (≈ 0.025 µM). The MIC (Staphylococcus aureus [6]) was 0.5 µg/mL.
With C[C@@H](O)[C@H]1C(=O)N2C(C(=O)O)=C(S[C@@H]3CN[C@H](C(=O)N(C)C)C3)[C@H](C)[C@H]12 [MEROPENEM] the MIC (Pseudomonas aeruginosa [10]) was < 1 µg/mL.
With H-IRIKIRIK-OH the MIC (Staphylococcus aureus [11]) was 8 µg/mL and the MIC (Staphylococcus aureus [12]) was 8 µg/mL.
Compound CCCCCCCCCCCCCC[N+](C)(C)CCCNC(=O)[C@H]1NC(=O)[C@H]2NC(=O)[C@H](NC(=O)[C@@H]3NC(=O)[C@H](CC(N)=O)NC(=O)[C@H](NC(=O)[C@@H](CC(C)C)NC)[C@H](O)c4ccc(c(Cl)c4)Oc4cc3cc(c4O[C@@H]3O[C@H](CO)[C@@H](O)[C@H](O)[C@H]3O[C@H]3C[C@](C)(N)[C@H](O)[C@H](C)O3)Oc3ccc(cc3Cl)[C@H]2O)c2ccc(O)c(c2)-c2c(O)cc(O)cc21 has an MIC (Acinetobacter baumannii [13]) of 3 µM, an MIC (Enterobacter cloacae) of 12.5 µM and an MIC (Pseudomonas aeruginosa [14]) of 6.1 µM. The MIC (Pseudomonas aeruginosa [15]) was 0.5 µg/mL, the MIC (Acinetobacter baumannii [16]) was ≤ 2 µg/mL and the MIC (Acinetobacter baumannii [17]) was < 1 µg/mL. The MIC (Escherichia coli [18]) was 12.5 µg/mL, the MIC (Escherichia coli [19]) was 6.25 µg/mL and the MIC (Klebsiella pneumoniae) was 3.15 µg/mL. The MIC (Escherichia coli [20]) was 6 µg/mL, the MIC (Acinetobacter baumannii [21]) was ≤ 2 µg/mL and the MIC (Acinetobacter baumannii [22]) was 3 µM. The MIC (Enterococcus faecium [23]) was 1.2 µM.
NC[C@H]1O[C@H](O[C@H]2[C@H](O)[C@@H](O[C@H]3O[C@H](CO)[C@@H](O)[C@H](N)[C@H]3O)[C@H](N)C[C@@H]2N)[C@H](N)C[C@@H]1O [TOBRAMYCIN] showed an MIC (Pseudomonas aeruginosa [24]) of 0.7 µM.
With H-ILRWPWWPWRRK-NH2 [OMIGANAN] the MIC (Enterococcus faecium [25]) was 2 µg/mL.
